From paper PMC6440634, “Phosphorylation of a serine/proline-rich motif in oxysterol binding protein-related protein 4L (ORP4L) regulates cholesterol and vimentin binding” (PLoS ONE, 2019)
Positions count from the first letter of the chain named.

What was measured:
Assay in all cases: specific radioligand binding in solution, Scatchard
[1] = target: T1, ORP4L (Homo sapiens, UniProt Q969R2, S762D/S763D/S766D/S768D)
T1 construct: gene OSBP2; about 116 kDa on SDS-PAGE, dimer by cross-linking; residues S762SPSSPSS769 in ORD
T1 sequence (Q969R2 1-916 S762D/S763D/S766D/S768D): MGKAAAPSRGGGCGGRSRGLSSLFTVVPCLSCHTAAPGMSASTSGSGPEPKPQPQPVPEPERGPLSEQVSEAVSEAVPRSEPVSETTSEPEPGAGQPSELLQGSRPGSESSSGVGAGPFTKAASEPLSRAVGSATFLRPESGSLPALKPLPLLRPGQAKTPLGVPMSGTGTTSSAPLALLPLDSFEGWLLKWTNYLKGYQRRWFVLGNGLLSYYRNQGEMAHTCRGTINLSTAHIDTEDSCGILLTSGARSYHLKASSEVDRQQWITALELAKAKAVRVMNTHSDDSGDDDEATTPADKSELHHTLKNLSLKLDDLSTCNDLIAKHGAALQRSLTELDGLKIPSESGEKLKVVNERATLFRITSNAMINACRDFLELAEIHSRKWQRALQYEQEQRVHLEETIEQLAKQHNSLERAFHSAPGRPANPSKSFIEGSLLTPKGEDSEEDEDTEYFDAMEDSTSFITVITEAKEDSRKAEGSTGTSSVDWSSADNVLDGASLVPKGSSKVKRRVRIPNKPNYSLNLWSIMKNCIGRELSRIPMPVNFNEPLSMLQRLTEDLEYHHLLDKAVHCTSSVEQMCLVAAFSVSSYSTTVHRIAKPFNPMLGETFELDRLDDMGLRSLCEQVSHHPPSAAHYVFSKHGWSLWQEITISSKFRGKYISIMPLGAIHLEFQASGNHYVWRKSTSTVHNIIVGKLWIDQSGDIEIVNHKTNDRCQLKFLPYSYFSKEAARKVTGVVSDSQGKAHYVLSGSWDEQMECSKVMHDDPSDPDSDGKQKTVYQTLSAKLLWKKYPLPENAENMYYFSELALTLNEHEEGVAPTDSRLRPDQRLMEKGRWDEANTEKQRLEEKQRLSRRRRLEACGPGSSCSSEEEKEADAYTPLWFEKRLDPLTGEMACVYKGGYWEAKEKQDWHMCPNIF

[2] = target: T2, ORP4L (Homo sapiens, UniProt Q969R2, S762A/S763A/S766A/S768A)
T2 construct: gene OSBP2; about 116 kDa on SDS-PAGE, dimer by cross-linking; residues S762SPSSPSS769 in ORD
T2 sequence (Q969R2 1-916 S762A/S763A/S766A/S768A): T1 sequence (Q969R2 1-916 S762D/S763D/S766D/S768D) with D762A, D763A, D766A, D768A

[3] = target: T3, ORP4L (Homo sapiens, UniProt Q969R2)
T3 construct: gene OSBP2; about 116 kDa on SDS-PAGE, dimer by cross-linking; residues S762SPSSPSS769 in ORD
T3 sequence (Q969R2 1-916): T1 sequence (Q969R2 1-916 S762D/S763D/S766D/S768D) with D762S, D763S, D766S, D768S

Kd [1] | Kd [2] | Kd [3] | SMILES
0.06 ± 0.018 µM | 0.062 ± 0.028 µM | 0.045 ± 0.012 µM | C[C@H](CCCC(C)(C)O)[C@H]1CC[C@H]2[C@@H]3CC=C4C[C@@H](O)CC[C@]4(C)[C@H]3CC[C@]12C [25OH]
0.144 ± 0.043 µM | 0.255 ± 0.09 µM | 0.16 ± 0.04 µM | CC(C)CCC[C@@H](C)[C@H]1CC[C@H]2[C@@H]3CC=C4C[C@@H](O)CC[C@]4(C)[C@H]3CC[C@]12C [cholesterol]
